Read-outs that look alike come from different tables or passages of the source.
Columns and labels:
[1] = tested on: BDNF-induced neuronal death in cortical cell cultures; assay: Protection against BDNF-induced neuronal death, LDH efflux; assay type: cell-based, Rat; conditions: for Swelling of neuronal cell body and neuronal death: 36 hr after exposure to BDNF, 3-10 nM DPI, 10-30 μM AEBSF; for BDNF neurotoxicity / BDNF-induced neuronal cell necrosis (LDH efflux): 100 ng/ml BDNF, 36 hr, 100 μg/ml anti-BDNF antibody, 100 μM trolox, 1 μg/ml cycloheximide
Procedure: Cortical cell cultures (DIV 12-15) were exposed to 100 ng/ml BDNF, alone or in the presence NADPH oxidase inhibitors, 3-10 nM DPI, 10-30 μM 4-(2-amonoethyl)-benzensulfonyl fluoride (AEBSF), or 1 μM 2-Hydroxy-TTBA ((2-Hydroxy-5-(2,3,5,6-tetrafluoro-4-trifluoromethyl-benzylamino)-benzoic acid). Neuronal death was analyzed 36 hr later by measurement of LDH efflux into the bathing medium.

[2] = tested on: free radical neurotoxicity; conditions: as anti-oxidants; cited from earlier work
ROS in cortical neurons = assay: ROS imaging by oxidized DCDHF-DA (DCF) and hydroethidine fluorescence; assay type: cell-based, Rat; conditions: for BDNF-induced production of [ROS]i: concurrent addition with 100 ng/ml BDNF, 32 hr
Procedure: Cortical cell cultures (DIV 12-15) grown on glass bottom dishes were loaded with 10 μM dichlorodihydro fluorescein diacetate (DCDHF-DA) or 5 μM hydroethidium (Molecular Probes, Eugene, Oreg.) plus 2% Pluronic F-127 in HEPES-buffered control salt solution (HCSS) buffer containing (in mM): 120 NaCl, 5 KCl, 1.6 MgCl2, 2.3 CaCl2, 15 glucose, 20 HEPES, and 10 NaOH. Cultures were incubated for 20 min at 37° C., and washed three times with HCSS buffer. […] The fluorescence images were analyzed using a QuantiCell 700 system (Applied imaging, UK).
Superoxide production through activation of NADPH oxidase was analyzed by measuring the oxidation of HEt and DCDHF to ethidium and DCF, respectively, in cortical neurons after exposure to a sham operation, 100 ng/ml BDNF, or 100 ng/ml BDNF plus 3 nM DPI for 32 hr (FIG. 15).

[3] = tested on: Neuron-rich cortical cell cultures; assay: Serum deprivation-induced neuronal apoptosis, counting viable neurons; assay type: cell-based, Rat; conditions: for Anti-apoptotic action of BDNF on inclusion of the substance: 100 ng/ml BDNF plus 3 nM DPI or 100 μM trolox; for Serum deprivation-induced neuronal apoptosis: alone, without BDNF; for Serum deprivation-induced neuronal apoptosis / Delayed neuronal death evolving in the presence of BDNF: 3 nM DPI, 100 μM trolox; for Delayed neuronal death evolving in the presence of BDNF: concurrent addition, 48 hr
Procedure: (§1) For neuron-glia mixed cultures, 10 μM cytosine arabinoside (Ara C) was included to stop the overgrowth of non-neuronal cells to cultures at DIV 5-7 when glial cells were confluent underneath neurons. After 2 days, cultures were then fed with plating medium lacking fetal serum twice a week. Cultures were maintained at 37° C. in a humidified 5% CO2 incubator. For neuron-rich cultures (>95%), 2.5 μM Ara C was included to cultures at 2-3 days in vitro (DIV 2-3) as previously described (Gwag et al., 1997).
(§2) Mixed cortical cell cultures (DIV 12-14) were rinsed in serum free MS (MEM supplemented with 26.5 mM sodium bicarbonate and 21 mM glucose) and then exposed to various concentrations of NGF, BDNF or NT-3 in serum free MS. Neuronal cell death was analyzed by measuring the level of lactate dehydrogenase (LDH) released into the bathing medium. The percent neuronal death was normalized to the mean LDH value released after a sham control (defined as 0%) or continuous exposure to 500 μM NMDA for 24 hr (defined as 100%) The latter produces complete neuronal death within 24 hr. For experiments for serum deprivation, neuron-rich cortical cell cultures (DIV 7) were placed into serum free MS containing 1 μM MK-801 as described (Gwag et al., 1995). Neuronal death was analyzed 24 and 48 hr later by counting viable neurons excluding Trypan Blue satained.
Neuron-rich cortical cell cultures (DIV 7) were deprived of serum, alone (serum deprivation) or in the presence of 100 ng/ml BDNF, 100 ng/ml BDNF plus 3 nM DPI, 3 nM DPI, 100 ng/ml BDNF plus 100 μM trolox, or 100 μM trolox. Neuronal death was assessed 24 hr and 48 hr later by counting viable neurons.

[4] = tested on: Mixed cortical cell cultures; assay type: cell-based, Rat
Procedure: Rat cortical cell cultures were prepared from the 17-day-old fetal brain and the neocortices were mechanically triturated as previously described (Noh and Gwag, 1997). Dissociated cells were plated on 6-well plates and 24-well plates (approximately 3 cortices per plate), or on glass bottom 35 mm dishes for ROS imaging. Plating media consist of Eagle's minimal essential media (MEM, Earle's salts, supplied glutamine-free) supplemented with 5% horse serum, 5% fetal bovine serum, 21 mM glucose, 26.5 mM bicarbonate and 2 mM L-glutamine.
as §1
To examine if neurotrophins would induce neuronal necrosis, BDNF-induced neuronal death was analyzed by measuring the level of lactate dehydrogenase (LDH) released into the bathing medium.
as §2
Neuronal cell death was assessed by measurement of LDH efflux to the bathing medium, mean±SEM (n=16 culture wells per condition). *, Significant difference from the relevant control (sham washed control), at P<0.05 using analysis of variance and Student-Newman-Keuls test.

cortical neurons = assay type: cell-based
Procedure: To examine the patterns of BDNF-induced neuronal death, we observed neurons from 32 hrs after a sham wash or continuous exposure to 100 ng/ml BDNF under phase contrast or transmission electron microscope.
Cultures were fixed in Karnovskys fixative solution (1% paraformaldehyde, 2% glutaraldehyde, 2 mM calcium cholride, 100 mM cacodylate buffer, pH 7.4) for 2 hr, washed with cacodylate buffer, and post-fixed in 1% osmium tetroxide and 1.5% potassium ferrocyanide for 1 hr. Cells were then stained en bloc in 0.5% uranyl acetate, dehydrated through graded ethanol series, and embedded in Poly/Bed 812 resin (Pelco, Calif.). Cells were sectioned using Reichert Jung Ultracut S (Leica, Cambridge, UK). After staining cells with uranyl acetate and lead citrate, cells were observed and photographed under Zeiss EM 902A.

[5] = 36 hr after 100 ng/ml BDNF, 3 nM DPI, 10 μM AEBSF, 1 μM 2-Hydroxy-TTBA

O=C(O)c1cc(NCc2c(F)c(F)c(C(F)(F)F)c(F)c2F)ccc1O [2-Hydroxy-TTBA, 2-Hydroxy-5-(2,3,5,6-tetrafluoro-4trifluoromethyl-benzylamino)-benzoic acid]
Neuronal necrosis (LDH efflux) [1, 5]: significantly reduced
Free radical neurotoxicity [2]: block free radical neurotoxicity

NCCc1ccc(S(=O)(=O)F)cc1 [AEBSF, 4-(2-amonoethyl)-benzensulfonyl fluoride]
Neuronal necrosis (LDH efflux) [1, 5]: significantly reduced
Swelling of neuronal cell body and neuronal death [1]: significantly reduced

c1ccc2c(c1)[I+]c1ccccc1-2 [DPI, diphenylene iodonium]
BDNF-induced superoxide production (oxidation of HEt and DCDHF) (ROS in cortical neurons): completely blocked
Neuronal necrosis (LDH efflux) [1]: significantly reduced
Swelling of neuronal cell body and neuronal death [1]: significantly reduced
Anti-apoptotic action of BDNF on inclusion of the substance [3]: insensitive
Serum deprivation-induced neuronal apoptosis [3]: Neither DPI nor trolox alone reduced
Delayed neuronal death evolving in the presence of BDNF [3]: attenuated

O=C(O)c1cc(NCc2ccc(F)cc2)ccc1O [FBAS, 5-(4-fluorobenxyl) aminosalicylic acid]
Free radical neurotoxicity [2]: block free radical neurotoxicity

COc1ccc(CNc2ccc(O)c(C(=O)O)c2)cc1 [MBAS]
Free radical neurotoxicity [2]: block free radical neurotoxicity

C[C@@H]1C[C@@H]([C@H](O)CC2CC(=O)NC(=O)C2)C(=O)[C@@H](C)C1 [cycloheximide, reference compound]
BDNF-induced production of [ROS]i (ROS in cortical neurons): prevented
BDNF neurotoxicity / BDNF-induced neuronal cell necrosis (LDH efflux) [1]: blocked

Cc1c(C)c2c(c(C)c1O)CCC(C)(C(=O)O)O2 (stereo not shown) [trolox]
BDNF-induced production of [ROS]i (ROS in cortical neurons): prevented
BDNF neurotoxicity / BDNF-induced neuronal cell necrosis (LDH efflux) [1]: blocked
Anti-apoptotic action of BDNF on inclusion of the substance [3]: insensitive
Serum deprivation-induced neuronal apoptosis [3]: Neither DPI nor trolox alone reduced
Delayed neuronal death evolving in the presence of BDNF [3]: attenuated

NT-3: neurotrophin-3, a neurotrophin
Cell necrosis induced by neurotrophin [4]: derives cell necrosis
Neuronal death (LDH efflux to the bathing medium) [4]: Near complete neuronal death

B1: BDNF: brain-derived neurotrophic factor, a neurotrophin (protein, UniProt P23560 19-247, looked up)
Neurotrophic factor BDNF …: APMKEANIRGQGGLAYPGVRTHGTLESVNGPKAGSRGLTSLADTFEHVIEELLDEDQKVRPNEENNKDADLYTSRVMLSSQVPLEPPLLFLLEEYKNYLDAANMSMRVRRHSDPARRGELSVCDSISEWVTAADKKTAVDMSGGTVTVLEKVPVSKGQLKQYFYETKCNPMGYTKEGCRGIDKRHWNSQCRTTQSYVRALTMDSKKRIGWRFIRIDTSCVCTLTIKRGR
Cell necrosis induced by neurotrophin [4]: derives cell necrosis
Neuronal death (LDH efflux to the bathing medium) [4]: Near complete neuronal death
Pattern of neuronal death under transmission electron microscope (cortical neurons): induced neuronal necrosis

B2: NT-4/5: a neurotrophin (protein, UniProt P34130 81-210, looked up)
Neurotrophin-4: GVSETAPASRRGELAVCDAVSGWVTDRRTAVDLRGREVEVLGEVPAAGGSPLRQYFFETRCKADNAEEGGPGAGGGGCRGVDRRHWVSECKAKQSYVRALTADAQGRVGWRWIRIDTACVCTLLSRTGRA
Cell necrosis induced by neurotrophin [4]: derives cell necrosis

From US7608585B2, “Compositions for inhibition of necrosis induced by a neurotrophin” (Neurotech Pharmaceuticals Co., Ltd., priority 2004, dated 2009)
